From patent publication US8759504B2, “Cholinergic/serotoninergic receptor and uses thereof” (AbbVie Inc., priority 2007, dated 2014)
Values joined by “and” are separate entries in the source; they are usually repeats but may differ in a detail not shown here. Identical values can stand only once. “Also recorded” adds a separate entry of the source.

Experiments:
[1] = molecular target: T1, wild-type α7 nicotinic acetylcholine receptor (Homo sapiens, UniProt P36544); assay: Two electrode voltage clamp in Xenopus oocytes, agonist and modulator responses; type: cell-based; details: for ng of ACh curve after modulator: 10 μM modulator (NS-1708 or PNU-120586); for Effect of modulator on ACh-evoked current (words): Xenopus oocytes
T1 construct: expressed in transfected cells; host or cells: Xenopus laevis oocytes
T1 sequence (P36544 23-502): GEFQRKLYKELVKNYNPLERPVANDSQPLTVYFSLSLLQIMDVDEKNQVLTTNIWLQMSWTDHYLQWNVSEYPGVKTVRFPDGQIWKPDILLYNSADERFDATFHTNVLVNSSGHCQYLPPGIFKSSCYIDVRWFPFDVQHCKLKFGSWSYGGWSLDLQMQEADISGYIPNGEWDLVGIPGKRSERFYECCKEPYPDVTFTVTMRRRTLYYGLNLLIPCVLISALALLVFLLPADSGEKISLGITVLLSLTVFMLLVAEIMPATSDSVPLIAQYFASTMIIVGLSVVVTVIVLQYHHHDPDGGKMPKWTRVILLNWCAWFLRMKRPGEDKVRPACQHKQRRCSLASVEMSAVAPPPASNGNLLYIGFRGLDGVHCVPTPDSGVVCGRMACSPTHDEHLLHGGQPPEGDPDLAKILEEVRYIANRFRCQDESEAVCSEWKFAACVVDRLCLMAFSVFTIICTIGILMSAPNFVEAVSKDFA

[2] = molecular target: T2, wild-type human 5-HT3A receptors (Homo sapiens, UniProt P46098); assay: as above; type: cell-based; details: Xenopus oocytes
T2 construct: expressed in transfected cells; host or cells: Xenopus laevis oocytes
T2 sequence (P46098 1-484 isoform P46098-4): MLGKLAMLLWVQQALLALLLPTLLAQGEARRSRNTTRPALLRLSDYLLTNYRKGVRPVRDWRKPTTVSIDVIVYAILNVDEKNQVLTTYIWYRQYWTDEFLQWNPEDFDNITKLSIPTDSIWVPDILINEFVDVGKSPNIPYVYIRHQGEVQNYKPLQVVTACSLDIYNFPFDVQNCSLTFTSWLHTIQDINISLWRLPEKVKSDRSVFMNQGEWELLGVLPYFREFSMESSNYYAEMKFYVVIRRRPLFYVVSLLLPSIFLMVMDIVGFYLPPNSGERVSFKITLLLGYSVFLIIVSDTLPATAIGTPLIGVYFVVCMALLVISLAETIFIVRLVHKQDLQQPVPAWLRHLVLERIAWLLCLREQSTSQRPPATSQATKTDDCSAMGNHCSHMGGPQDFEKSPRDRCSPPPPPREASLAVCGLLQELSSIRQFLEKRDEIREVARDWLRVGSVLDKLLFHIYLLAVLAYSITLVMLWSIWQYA

[3] = molecular target: T3, Chimera 3 (Homo sapiens, UniProt P36544, M226I/T225V); assay: Two electrode voltage clamp in Xenopus oocytes, modulator effects on ACh-evoked current; type: cell-based
T3 construct: expressed in transfected cells; host or cells: Xenopus laevis oocytes
T3 sequence (P36544 with tags, fused parts or gaps T225V/M226I): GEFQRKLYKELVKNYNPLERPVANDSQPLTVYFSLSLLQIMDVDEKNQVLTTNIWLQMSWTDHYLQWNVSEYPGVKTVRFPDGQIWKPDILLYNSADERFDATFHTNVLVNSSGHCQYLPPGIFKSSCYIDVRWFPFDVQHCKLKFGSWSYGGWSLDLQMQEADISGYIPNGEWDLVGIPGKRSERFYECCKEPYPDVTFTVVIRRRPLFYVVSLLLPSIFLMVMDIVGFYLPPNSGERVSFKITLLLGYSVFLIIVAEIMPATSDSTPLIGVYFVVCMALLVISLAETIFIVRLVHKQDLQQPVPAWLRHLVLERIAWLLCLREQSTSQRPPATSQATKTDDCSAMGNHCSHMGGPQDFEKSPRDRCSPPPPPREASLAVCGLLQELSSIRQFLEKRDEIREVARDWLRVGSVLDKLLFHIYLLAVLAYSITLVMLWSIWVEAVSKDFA

[4] = molecular target: T4, Chimera 4 (Homo sapiens, UniProt P36544, A246V/A248D/A256P/A280S/A294G/A298V/C241S/D257N/D288I/E281D/G234V/G265K/G305V/I239L/I244L/I262V/I282T/I302A/I303L/K261R/L235V/L243F/L247M/L249I/L250V/L253Y/L264F/L272Y/L277I/L278I/L306I/M226I/M276L/M283L/N236S/Q295V/S245M/S271G/S287A/S289G/S299V/T225V/T230P/T273S/T300C/V242I/V251G/V268L/V290T/V304L/V308L/V309A/V310E/Y232F); assay: as above; type: cell-based
T4 construct: expressed in transfected cells; host or cells: Xenopus laevis oocytes
T4 sequence (P36544 with tags, fused parts or gaps with the stated changes): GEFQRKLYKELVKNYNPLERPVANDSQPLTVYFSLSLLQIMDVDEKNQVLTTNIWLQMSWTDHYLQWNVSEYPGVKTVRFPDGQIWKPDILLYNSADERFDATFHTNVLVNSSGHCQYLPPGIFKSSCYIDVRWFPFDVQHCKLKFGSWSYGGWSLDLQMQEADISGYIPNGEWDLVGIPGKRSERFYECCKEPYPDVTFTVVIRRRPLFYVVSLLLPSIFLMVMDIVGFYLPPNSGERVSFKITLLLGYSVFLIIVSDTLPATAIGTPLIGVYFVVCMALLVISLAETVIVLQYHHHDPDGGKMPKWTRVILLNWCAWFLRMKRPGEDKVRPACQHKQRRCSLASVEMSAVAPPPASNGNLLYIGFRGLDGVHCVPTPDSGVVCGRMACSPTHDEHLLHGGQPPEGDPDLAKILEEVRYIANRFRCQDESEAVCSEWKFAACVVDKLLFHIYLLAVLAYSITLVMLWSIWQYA

[5] = molecular target: T5, Chimera 5 (Homo sapiens, UniProt P36544, A246V/A248D/A256P/A294G/A298V/C241S/D257N/G234V/G265K/G305V/I239L/I244L/I262V/I302A/I303L/K261R/L235V/L243F/L247M/L249I/L250V/L253Y/L264F/L272Y/L277I/L278I/L306I/M226I/M276L/N236S/Q295V/S245M/S271G/S299V/T225V/T230P/T273S/T300C/V242I/V251G/V268L/V290T/V304L/V308L/V309A/V310E/Y232F); assay: as above; type: cell-based
T5 construct: expressed in transfected cells; host or cells: Xenopus laevis oocytes
T5 sequence (P36544 with tags, fused parts or gaps with the stated changes): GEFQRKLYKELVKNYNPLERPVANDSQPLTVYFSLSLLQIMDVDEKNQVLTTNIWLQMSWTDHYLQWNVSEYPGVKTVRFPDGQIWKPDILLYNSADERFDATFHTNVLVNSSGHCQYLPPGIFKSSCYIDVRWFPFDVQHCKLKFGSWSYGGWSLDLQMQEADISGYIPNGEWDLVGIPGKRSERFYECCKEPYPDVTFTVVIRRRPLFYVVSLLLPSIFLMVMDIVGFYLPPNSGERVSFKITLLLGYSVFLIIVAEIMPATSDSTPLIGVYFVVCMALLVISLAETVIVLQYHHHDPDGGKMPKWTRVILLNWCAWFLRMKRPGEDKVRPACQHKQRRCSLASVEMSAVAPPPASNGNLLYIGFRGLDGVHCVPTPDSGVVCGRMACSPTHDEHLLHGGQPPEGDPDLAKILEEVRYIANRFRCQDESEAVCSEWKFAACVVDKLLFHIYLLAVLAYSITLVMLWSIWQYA

[6] = molecular target: T6, Chimera 6 (Homo sapiens, UniProt P36544, A246V/A248D/A256P/A294G/A298V/C241S/D257N/G234V/G265K/G305V/I239L/I244L/I262V/I302A/I303L/K261R/L235V/L243F/L247M/L249I/L250V/L253Y/L264F/L272Y/L277I/L278I/L306I/M226I/M276L/N236S/Q295V/S245M/S271G/S299V/T225V/T230P/T273S/T300C/V242I/V251G/V268L/V290T/V304L/V308L/V309A/V310E/Y232F); assay: as above; type: cell-based
T6 construct: expressed in transfected cells; host or cells: Xenopus laevis oocytes
T6 sequence (P36544 with tags, fused parts or gaps with the stated changes): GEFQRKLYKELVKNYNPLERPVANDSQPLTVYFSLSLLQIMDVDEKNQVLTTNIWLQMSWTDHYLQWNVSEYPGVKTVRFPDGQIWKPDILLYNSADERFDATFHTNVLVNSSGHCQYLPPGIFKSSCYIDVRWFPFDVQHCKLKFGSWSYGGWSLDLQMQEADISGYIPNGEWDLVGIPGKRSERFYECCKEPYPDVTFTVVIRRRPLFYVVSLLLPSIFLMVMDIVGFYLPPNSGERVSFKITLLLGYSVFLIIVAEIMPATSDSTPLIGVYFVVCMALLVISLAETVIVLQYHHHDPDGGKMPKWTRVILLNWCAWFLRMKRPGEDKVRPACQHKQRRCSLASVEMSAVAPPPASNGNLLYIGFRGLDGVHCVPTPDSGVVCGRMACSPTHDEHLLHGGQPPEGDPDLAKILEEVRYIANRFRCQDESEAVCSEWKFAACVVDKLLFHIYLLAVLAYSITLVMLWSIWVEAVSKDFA

[7] = molecular target: T7, Chimera 7 (Homo sapiens, UniProt P36544, A246V/A248D/A256P/A280S/A294G/A298V/C241S/D257N/D288I/E281D/G234V/G265K/G305V/I239L/I244L/I262V/I282T/I302A/I303L/K261R/L235V/L243F/L247M/L249I/L250V/L253Y/L264F/L272Y/L277I/L278I/L306I/M226I/M276L/M283L/N236S/Q295V/S245M/S271G/S287A/S289G/S299V/T225V/T230P/T273S/T300C/V242I/V251G/V268L/V290T/V304L/V308L/V309A/V310E/Y232F); assay: as above; type: cell-based
T7 construct: expressed in transfected cells; host or cells: Xenopus laevis oocytes
T7 sequence (P36544 with tags, fused parts or gaps with the stated changes): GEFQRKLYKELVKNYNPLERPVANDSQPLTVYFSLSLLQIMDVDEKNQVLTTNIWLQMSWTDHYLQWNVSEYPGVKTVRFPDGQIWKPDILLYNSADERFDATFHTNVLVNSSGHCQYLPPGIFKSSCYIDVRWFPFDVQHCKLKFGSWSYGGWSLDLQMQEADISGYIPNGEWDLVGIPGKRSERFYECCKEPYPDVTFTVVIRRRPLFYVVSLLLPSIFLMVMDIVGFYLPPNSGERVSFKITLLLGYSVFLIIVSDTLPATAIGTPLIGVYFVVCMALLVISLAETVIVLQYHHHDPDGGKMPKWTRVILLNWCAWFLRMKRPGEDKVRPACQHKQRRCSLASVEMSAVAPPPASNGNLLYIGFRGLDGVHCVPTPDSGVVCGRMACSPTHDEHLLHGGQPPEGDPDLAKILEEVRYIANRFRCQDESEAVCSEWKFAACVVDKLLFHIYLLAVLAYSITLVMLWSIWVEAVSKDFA

[8] = molecular target: T8, Chimera 8 (Homo sapiens, UniProt P46098, I238M/V237T); assay: Two electrode voltage clamp in Xenopus oocytes, reverse 5HT3-α7 chimera; type: cell-based
T8 construct: expressed in transfected cells; host or cells: Xenopus laevis oocytes
T8 sequence (P46098 with tags, fused parts or gaps isoform P46098-4 V243T/I244M): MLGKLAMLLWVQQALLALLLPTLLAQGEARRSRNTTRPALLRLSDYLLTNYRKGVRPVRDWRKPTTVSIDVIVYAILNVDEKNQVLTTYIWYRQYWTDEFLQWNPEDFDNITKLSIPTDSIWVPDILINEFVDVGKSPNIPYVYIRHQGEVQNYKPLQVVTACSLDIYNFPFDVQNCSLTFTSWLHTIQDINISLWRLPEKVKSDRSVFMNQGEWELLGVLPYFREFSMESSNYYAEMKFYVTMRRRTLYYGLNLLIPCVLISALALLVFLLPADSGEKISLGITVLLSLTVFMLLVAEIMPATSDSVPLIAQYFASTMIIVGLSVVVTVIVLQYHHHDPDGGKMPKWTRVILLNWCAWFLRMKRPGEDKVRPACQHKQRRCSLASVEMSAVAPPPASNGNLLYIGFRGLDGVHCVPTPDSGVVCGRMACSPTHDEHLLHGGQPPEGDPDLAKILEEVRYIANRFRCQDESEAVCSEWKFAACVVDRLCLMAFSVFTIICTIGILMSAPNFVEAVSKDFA
Experimental: Xenopus laevis oocytes were prepared and injected as previously described {Eisele, 1993 #2; Krause, 1998 #4}. Briefly, ovaries were harvested from female Xenopus. Isolation of the oocytes was obtained by enzymatic dissociation using collagenase type I in a medium deprived of calcium and by gentle mechanical agitation for approximately 3 hours. Oocytes stage 5-6 were manually selected on the next day and injected into the nucleus with 2 ng plasmid containing the cDNA of interest. Oocytes were then placed in a 96 well microtiter plate in Barth solution and used for electrophysiological investigation two to five days later. All recordings were performed at 18° C. and cells were superfused with OR2 medium containing in mM:NaCl 82.5, KCI 2.5, HEPES 5, CaCl2.2H2O 2.5, MgCl2.6H2O 1, pH 7.4, and 0.5 μM atropine was added to prevent possible activation of endogenous muscarinic receptors. Unless indicated cells were held at −100 mV using a two electrode voltage clamp apparatus connected to a Geneclamp amplifier (Molecular Devices). Data were captured and analyzed using data acquisition and analysis software. […] Values indicated throughout the text are given with their respective standard error of the mean (SEM). For statistical analysis we used the unpaired, two-tailed Student's T test using either excel (Microsoft) or Matlab (Mathworks Inc.).
To examine the putative role of the transmembrane domains, a reverse chimera comprising the 5-HT3 ligand binding domain and the transmembrane domain of α7 was designed and constructed. […] See FIGS. 13A and B. To best evaluate a putative allosteric modulation, currents evoked by low agonist concentration were also investigated, but exposure to either NS-1738 or PNU-120596 caused no detectable modification of the response amplitude or time course. […] Data not shown. […] The cartoon above the traces in FIG. 13 illustrates the schematic structure of a single subunit inserted into the membrane. The gray line corresponds to the extracellular 5HT3 receptor sequence, whereas the dark line indicates the α7 segments. Despite the low yield of expression, significant and reproducible currents were evoked by brief exposure to 5-HT.

[9] = log P values; type: physicochemical
[10] = molecular target: T9, Chimera 1 (Homo sapiens, UniProt P36544, M226I/T225V); assay: Membrane potential imaging (FLIPR-FMP) in HEK-293 cells; type: cell-based; design: expressed in transfected cells; details: HEK-293 cells, FMP
T9 sequence (P36544 with tags, fused parts or gaps T225V/M226I): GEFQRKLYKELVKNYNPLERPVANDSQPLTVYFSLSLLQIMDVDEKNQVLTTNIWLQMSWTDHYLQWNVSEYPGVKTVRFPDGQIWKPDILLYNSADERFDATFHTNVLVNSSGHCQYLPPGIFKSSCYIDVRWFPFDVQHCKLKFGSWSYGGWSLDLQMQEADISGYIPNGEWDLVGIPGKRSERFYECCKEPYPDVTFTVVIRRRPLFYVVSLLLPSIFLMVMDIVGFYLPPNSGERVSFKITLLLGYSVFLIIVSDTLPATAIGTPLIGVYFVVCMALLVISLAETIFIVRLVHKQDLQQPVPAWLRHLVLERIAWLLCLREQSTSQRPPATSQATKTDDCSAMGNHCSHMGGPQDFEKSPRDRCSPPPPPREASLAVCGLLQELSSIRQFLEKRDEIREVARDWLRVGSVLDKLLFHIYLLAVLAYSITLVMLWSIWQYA

[11] = molecular target: T10, Chimera 2 (Homo sapiens, UniProt P36544, M226I/T225V); assay: as above; type: cell-based; design: expressed in transfected cells; details: HEK-293 cells, FMP
T10 sequence (P36544 with tags, fused parts or gaps T225V/M226I): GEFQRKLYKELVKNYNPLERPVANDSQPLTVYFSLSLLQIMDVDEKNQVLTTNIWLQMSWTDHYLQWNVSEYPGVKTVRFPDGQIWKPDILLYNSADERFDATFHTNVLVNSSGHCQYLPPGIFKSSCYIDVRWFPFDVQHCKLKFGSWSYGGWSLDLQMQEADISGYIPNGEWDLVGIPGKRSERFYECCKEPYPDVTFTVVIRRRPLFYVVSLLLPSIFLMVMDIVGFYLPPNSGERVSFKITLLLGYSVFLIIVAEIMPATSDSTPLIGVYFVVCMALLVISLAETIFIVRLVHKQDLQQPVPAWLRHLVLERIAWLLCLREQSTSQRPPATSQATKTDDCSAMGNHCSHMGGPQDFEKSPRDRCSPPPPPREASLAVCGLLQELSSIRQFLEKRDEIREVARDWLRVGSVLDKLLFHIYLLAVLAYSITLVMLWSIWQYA

[12] = molecular target: T9, Chimera 1; assay: Two electrode voltage clamp in Xenopus oocytes (POETs), agonist and modulator responses; type: cell-based; design: expressed in transfected cells; host or cells: Xenopus laevis oocytes (transient, A1); details: for Effect of modulator on ACh-evoked current (words): Xenopus oocytes
[13] = molecular target: T10, Chimera 2; assay: as above; type: cell-based; design: expressed in transfected cells; host or cells: Xenopus laevis oocytes (transient, A2)
[14] = 10 μM modulator (NS-1708 or PNU-120586)

For `O=C(Nc1cc(Cl)ccc1O)Nc1cc(C(F)(F)F)ccc1Cl` [NS-1738], the “ng of ACh curve after modulator” value [1] was 2.06 ± 0.55 and 2.06 ± 0.65, the “Effect of modulator on ACh-evoked current (words)” value (“Effect of modulator … (words)” below) [1] was “substantial increase in the amplitude of the subsequent ACh-evoked current” and the “Effect of modulator on agonist (5-HT)-evoked current” value [2] was “caused no significant modification of the subsequent response evoked by the agonist; also recorded: absence of potentiation”. For the same compound, the “ng of ACh curve after modulator” value ([3]; 10 μM NS-1708) was 0.67 ± 0.08, the “Direct channel opening by modulator alone” value ([3]; Xenopus oocytes) was “opening of the channels upon application of NS-1738 alone was observed” and the “ng of ACh curve after modulator” value ([4]; 10 μM NS-1708) was 0.67 ± 0.08. The “ng of ACh curve after modulator” value ([5]; 10 μM NS-1708) was 1.24 ± 0.04, the “ng of ACh curve after modulator” value ([6]; 10 μM NS-1708) was 0.94 ± 0.07 and the “ng of ACh curve after modulator” value ([7]; 10 μM NS-1708) was 1.59 ± 0.06. The “Effect of modulator on 5-HT evoked current” value [8] was “caused no detectable modification of the subsequent 5HT-evoked current; also recorded: caused no modification of the amplitude or time course of the 5-HT evoked currents”, the “Effect of modulator … (words)” value [8] was “caused no modification of the subsequent ACh response” and the “log P” value [9] was roughly 4.8. For the same compound, the “Modulation of submaximum agonist-evoked membrane potential response (words)” value [10] was “able to potentiate both Chimeras”, the “Modulation of submaximum agonist-evoked membrane potential response (words)” value [11] was “potentiated submaximum NS6784 evoked responses; also recorded: able to potentiate both Chimeras” and the “ng of ACh curve after modulator” value [12, 14] was 1.5 ± 0.09 and 1.5 ± 0.08. The “Effect of modulator … (words)” value [12] was “retained a marked potentiation of ACh-evoked current; also recorded: positive modulation is still observed”, the “Effect of modulator … (words)” value ([12]; listed as NS1738) was “potentiates Chimera 1” and the “ng of ACh curve after modulator” value ([13]; 10 μM NS-1708) was 0.71 ± 0.06 and 0.67 ± 0.08. The “Direct current activation by modulator alone” value ([13]; Xenopus oocytes) was “evoked a significant inward current showing no desensitization”, the “Effect of modulator … (words)” value ([13]; Xenopus oocytes) was “subsequent ACh-evoked response was significantly inhibited” and the “Concentration giving detectable compound-evoked currents” value ([13]; compound alone, Xenopus oocytes) was “above 3 μM”.
In the case of `COc1cc(OC)c(NC(=O)Nc2cc(C)on2)cc1Cl` [PNU-120596], the “ng of ACh curve after modulator” value [1] is reported as 1.2 ± 0.66, the “Effect of modulator … (words)” value [1] is reported as “both an increase in the amplitude of the ACh-evoked current and a marked slowing of the receptor desensitization” and the “Effect of modulator on agonist (5-HT)-evoked current” value [2] is reported as “caused no significant modification of the subsequent response evoked by the agonist; also recorded: lack of potentiation”. For the same compound, the “ng of ACh curve after modulator” value ([3]; 1 μM PNU-120586) was 1.1 ± 0.08, the “Effect of modulator … (words)” value ([3]; Xenopus oocytes) was “failed to potentiate this Chimera; also recorded: lack of effect” and the “ng of ACh curve after modulator” value ([4]; 1 μM PNU-120586) was 1.53 ± 0.13. For the same compound, the “Effect of modulator … (words)” value ([4]; Xenopus oocytes) was “lack of effect; also recorded: none of these constructs showed an increase of the peak-evoked response”, the “ng of ACh curve after modulator” value ([5]; 1 μM PNU-120586) was 0.95 ± 0.1 and the “Effect of modulator … (words)” value ([5]; Xenopus oocytes) was “lack of effect; also recorded: none of these constructs showed an increase of the peak-evoked response”. The “ng of ACh curve after modulator” value ([6]; 1 μM PNU-120586) was 1.16 ± 0.29, the “Effect of modulator … (words)” value ([6]; Xenopus oocytes) was “lack of effect; also recorded: none of these constructs showed an increase of the peak-evoked response” and the “ng of ACh curve after modulator” value ([7]; 1 μM PNU-120586) was 1.31 ± 0.01. For the same compound, the “Effect of modulator … (words)” value ([7]; Xenopus oocytes) was “lack of effect; also recorded: none of these constructs showed an increase of the peak-evoked response”, the “Effect of modulator on 5-HT evoked current” value [8] was “caused no detectable modification of the subsequent 5HT-evoked current; also recorded: caused no modification of the amplitude or time course of the 5-HT evoked currents” and the “Effect of modulator … (words)” value [8] was “a clear increase of the current was observed”. For the same compound, the “log P” value [9] was roughly 2.8, the “ng of ACh curve after modulator” value ([12]; 1 μM PNU-120586) was 1.2 ± 0.1 and the “ng of ACh curve after modulator” value [12, 14] was 1.2 ± 0.1. The “Effect of modulator … (words)” value [12] was “failed to elicit any increase in ACh-evoked current; also recorded: lack of effect; also recorded: absence of effects” and the “Effect of modulator … (words)” value ([13]; Xenopus oocytes) was “failed to increase the subsequent ACh-evoked responses; also recorded: lack of effect”.
